Measurements taken from patent US10858352B2, “Pharmaceutical compounds” (Heptares Therapeutics Limited, priority 2018, dated 2020).
Read-outs that look alike come from different tables or passages of the source.

Columns and labels:
Type in all cases: cell-based
[1] = biological target: T1, human muscarinic M1 receptor (Homo sapiens, UniProt P11229); assay: Alphascreen Surefire phospho-ERK1/2 functional assay, M1; conditions: for EC50 / pEC50 M1: agonist 5 min, 37° C.; for Emax: CHO
T1 sequence (P11229 1-460): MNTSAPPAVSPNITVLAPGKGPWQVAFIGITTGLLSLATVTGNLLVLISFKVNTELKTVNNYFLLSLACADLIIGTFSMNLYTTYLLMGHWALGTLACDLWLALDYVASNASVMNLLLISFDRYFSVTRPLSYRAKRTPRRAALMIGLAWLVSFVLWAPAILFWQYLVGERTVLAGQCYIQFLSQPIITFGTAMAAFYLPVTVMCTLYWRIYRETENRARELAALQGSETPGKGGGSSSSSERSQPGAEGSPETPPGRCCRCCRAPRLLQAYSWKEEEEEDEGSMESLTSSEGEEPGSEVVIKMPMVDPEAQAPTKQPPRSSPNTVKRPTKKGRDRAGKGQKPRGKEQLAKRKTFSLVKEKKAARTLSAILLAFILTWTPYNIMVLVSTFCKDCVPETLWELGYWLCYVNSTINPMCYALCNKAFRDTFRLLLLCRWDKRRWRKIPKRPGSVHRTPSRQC
Procedure: (§1) ERK1/2 phosphorylation is a downstream consequence of both Gq/11 and Gi/o protein coupled receptor activation, making it highly suitable for the assessment of M1, M3 (Gq/11 coupled) and M2, M4 receptors (Gi/o coupled), rather than using different assay formats for different receptor subtypes. CHO cells stably expressing the human muscarinic M1, M2, M3 or M4 receptor were plated (25K/well) onto 96-well tissue culture plates in MEM-alpha+10% dialysed FBS. Once adhered, cells were serum-starved overnight. Agonist stimulation was performed by the addition of 5 μL agonist to the cells for 5 min (37° C.). Media was removed and 50 μL of lysis buffer added. After 15 min, a 4 μL sample was transferred to 384-well plate and 7 μL of detection mixture added. […]

[2] = biological target: T2, human muscarinic M2 receptor (Homo sapiens, UniProt P08172); assay: Alphascreen Surefire phospho-ERK1/2 functional assay, M2; conditions: for Emax: CHO
T2 sequence (P08172 1-466): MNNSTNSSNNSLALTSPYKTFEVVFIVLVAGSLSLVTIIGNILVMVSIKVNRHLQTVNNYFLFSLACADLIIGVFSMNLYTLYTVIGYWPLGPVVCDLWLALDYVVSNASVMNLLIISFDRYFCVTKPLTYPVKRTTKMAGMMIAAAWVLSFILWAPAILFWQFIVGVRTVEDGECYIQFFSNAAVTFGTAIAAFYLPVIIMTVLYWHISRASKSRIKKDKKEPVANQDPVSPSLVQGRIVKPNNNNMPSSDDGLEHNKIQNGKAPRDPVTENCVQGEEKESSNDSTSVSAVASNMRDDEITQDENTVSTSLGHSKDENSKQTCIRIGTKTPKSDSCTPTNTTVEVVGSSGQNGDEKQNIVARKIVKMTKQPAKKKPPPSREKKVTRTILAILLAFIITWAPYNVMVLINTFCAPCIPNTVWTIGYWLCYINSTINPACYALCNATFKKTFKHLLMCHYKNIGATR
Procedure: as §1

[3] = biological target: T3, human muscarinic M4 receptor (Homo sapiens, UniProt P08173); assay: Alphascreen Surefire phospho-ERK1/2 functional assay, M4; conditions: for EC50 / pEC50 M4: agonist 5 min, 37° C.; for Emax: CHO, read-out: % Emax cf. ACh (M4), CHO cells stably expressing human M4; for Emax / % Emax cf. ACh (M4): Emax relative to ACh
T3 construct: expressed in transfected cells
T3 sequence (P08173 1-479): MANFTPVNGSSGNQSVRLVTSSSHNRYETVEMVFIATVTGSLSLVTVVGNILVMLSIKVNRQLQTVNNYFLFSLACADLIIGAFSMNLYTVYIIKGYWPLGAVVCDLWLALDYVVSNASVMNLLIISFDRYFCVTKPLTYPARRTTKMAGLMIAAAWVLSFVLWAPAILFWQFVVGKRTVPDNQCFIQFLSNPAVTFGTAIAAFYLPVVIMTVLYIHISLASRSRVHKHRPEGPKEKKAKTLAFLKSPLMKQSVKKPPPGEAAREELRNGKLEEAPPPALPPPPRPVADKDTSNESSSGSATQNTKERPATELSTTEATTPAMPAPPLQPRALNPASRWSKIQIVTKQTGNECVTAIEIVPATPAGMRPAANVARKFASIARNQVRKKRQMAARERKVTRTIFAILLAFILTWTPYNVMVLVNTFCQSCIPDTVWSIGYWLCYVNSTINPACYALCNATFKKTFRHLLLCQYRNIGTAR
Procedure: as §1

[4] = biological target: T4, human muscarinic M3 receptor (Homo sapiens, UniProt P20309); assay: Alphascreen Surefire phospho-ERK1/2 functional assay, M3; conditions: for Emax: CHO
T4 construct: expressed in transfected cells
Procedure: as §1

[5] = CHO cells stably expressing human M1, read-out: pEC50 M1 (converted)
[6] = read-out: % Emax cf. ACh (M1), CHO cells stably expressing human M1, Emax relative to ACh
[7] = CHO cells stably expressing human M2, agonist 5 min, 37° C., read-out: pEC50 M2 (converted)
[8] = read-out: % Emax cf. ACh (M2), CHO cells stably expressing human M2, Emax relative to ACh
[9] = CHO cells stably expressing human M4, read-out: pEC50 M4 (converted)
[10] = CHO cells stably expressing human M3, agonist 5 min, 37° C., read-out: pEC50 M3 (converted)
[11] = read-out: % Emax cf. ACh (M3), CHO cells stably expressing human M3, Emax relative to ACh
[12] = CHO cells stably expressing human M1, Emax relative to ACh
[13] = CHO cells stably expressing human M4
[14] = pEC50 M1, CHO cells stably expressing human M1
[15] = CHO cells stably expressing human M2, Emax relative to ACh
[16] = CHO cells stably expressing human M2, agonist 5 min, 37° C.
[17] = CHO cells stably expressing human M3, Emax relative to ACh
[18] = CHO cells stably expressing human M3, agonist 5 min, 37° C.
[19] = CHO cells stably expressing human M1

T4 sequence (P20309 whole entry): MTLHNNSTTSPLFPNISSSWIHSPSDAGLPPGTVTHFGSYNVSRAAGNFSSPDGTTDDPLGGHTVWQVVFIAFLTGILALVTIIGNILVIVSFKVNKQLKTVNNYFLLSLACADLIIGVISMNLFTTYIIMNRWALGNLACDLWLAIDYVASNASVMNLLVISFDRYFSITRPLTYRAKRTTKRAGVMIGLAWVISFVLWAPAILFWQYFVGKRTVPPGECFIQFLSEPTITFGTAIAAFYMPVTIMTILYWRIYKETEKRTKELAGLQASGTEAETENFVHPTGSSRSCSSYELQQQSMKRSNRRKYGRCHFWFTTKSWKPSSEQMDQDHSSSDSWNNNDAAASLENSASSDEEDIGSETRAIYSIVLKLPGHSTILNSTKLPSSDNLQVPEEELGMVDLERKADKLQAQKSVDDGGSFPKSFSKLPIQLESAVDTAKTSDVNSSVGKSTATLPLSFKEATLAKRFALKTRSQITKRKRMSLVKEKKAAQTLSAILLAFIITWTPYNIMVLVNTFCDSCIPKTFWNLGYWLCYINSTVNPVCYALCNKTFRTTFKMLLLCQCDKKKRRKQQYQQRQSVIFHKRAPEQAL

SMILES	EC50 [1, 5]	Emax [1, 6]	EC50 [3, 9]	Emax [3]	% Emax cf. ACh (M1) [1, 12]	% Emax cf. ACh (M4) [3, 13]	also measured
Cc1noc(N2CC3CCC2CC3N2CCC(n3cccn3)CC2)n1 (single isomer, unassigned) [7-1 Isomer 1]	> 20000 nM	18%	151 nM	85%			EC50 [2, 7]: > 20000 nM; Emax [2, 8]: 11%; EC50 [4, 10]: > 20000 nM; Emax [4, 11]: 7%
Cc1noc(N2CC3CC(N4CCC5(CC4)CNC(=O)O5)CC2C3)n1 (single isomer, unassigned) [11-3 Isomer 2]	70.8 nM	65%	> 20000 nM	11%			EC50 [2, 7]: > 20000 nM; Emax [2, 8]: 21%; EC50 [4, 10]: > 20000 nM; Emax [4, 11]: 22%
Cc1noc(N2C3CCC2CC(N2CCC4(CC2)CNC(=O)O4)C3)n1 (single isomer, unassigned) [6-4 Isomer 2]	257 nM		525 nM		(87) %	(39) %	EC50 [2, 7]: > 20000 nM; Emax ([2]; read-out: % Emax cf. ACh (M2)): 5%; EC50 [4, 10]: > 20000 nM; Emax ([4]; read-out: % Emax cf. ACh (M3)): 32%
O=C1CC2(CCN(C3CC4CCC(C3)N4c3nc(C(F)(F)F)no3)CC2)CN1 (single isomer, unassigned) [12-3 Isomer 1]		67%	> 20000 nM	14%			EC50 [1, 14]: 31.6 nM; EC50 [2]: > 20000 nM; Emax ([2]; read-out: % Emax cf. ACh (M2)): 19%; EC50 [4]: > 20000 nM; Emax ([4]; read-out: % Emax cf. ACh (M3)): 31%
Cc1noc(N2CC3CCC2CC3N2CCC3(CC2)CNC(=O)O3)n1 (single isomer, unassigned) [12-2 Isomer 2]	398 nM	80%	> 20000 nM	18%			EC50 [2, 7]: > 20000 nM; Emax [2, 8]: 14%; EC50 [4, 10]: > 20000 nM; Emax [4, 11]: 1%
Cc1noc(N2CC3CCC2CC3N2CCC3(CC2)CNC(=O)C3)n1 (single isomer, unassigned) [12-1 Isomer 2]	32.4 nM		117 nM		(106) %	(30) %	EC50 [2, 7]: > 20000 nM; Emax [2, 8]: 6%; EC50 [4, 10]: > 20000 nM; Emax [4, 11]: 2%
Cc1noc(N2CC3CCC2CC3N2CCC(n3cccn3)CC2)n1 (single isomer, unassigned) [7-1 Isomer 2]	2290 nM		85.1 nM		(33) %	(99) %	% Emax cf. ACh (M2) [2, 15]: (15) %; pEC50 M2 [2, 16]: <4.70; % Emax cf. ACh (M3) [4, 17]: (6) %; pEC50 M3 [4, 18]: <4.70
CCN(CC)C(=O)[C@H]1[C@@H]2CN(C3CC4CCC(C3)N4c3nc(C)no3)C[C@@H]21 (single isomer, unassigned; isomer 2) [12-25 Isomer 2]					(91) %	(119) %	pEC50 M1 [1, 19]: 8.55; % Emax cf. ACh (M2) [2, 15]: (84) %; pEC50 M2 [2, 16]: 6.15; pEC50 M4 [3, 13]: 6.82; % Emax cf. ACh (M3) [4, 17]: (57) %; pEC50 M3 [4, 18]: 5.29
Cc1noc(N2CCCC(N3CCC4(CC3)C(=O)Nc3ccccc34)CC2)n1 (single isomer, unassigned) [10-6 Isomer 1]		76%	77.6 nM	77%			EC50 [1, 14]: 661 nM; EC50 [2]: > 20000 nM; Emax ([2]; read-out: % Emax cf. ACh (M2)): 60%; EC50 [4]: > 20000 nM; Emax ([4]; read-out: % Emax cf. ACh (M3)): 4%
CC(=O)N(CC1(C)CCC1)C1CCN(C2CC3CCC(C2)N3c2nc(C)no2)CC1 (single isomer, unassigned; isomer 2) [12-18 Isomer 2]					(92) %	(92) %	pEC50 M1 [1, 19]: 8.63; % Emax cf. ACh (M2) [2, 15]: (90) %; pEC50 M2 [2, 16]: 6.59; pEC50 M4 [3, 13]: 7.83; % Emax cf. ACh (M3) [4, 17]: (48) %; pEC50 M3 [4, 18]: 5.72
Cc1noc(N2CCC3(CC(N4CCC(C#N)(c5ccccc5)CC4)C3)C2)n1 (single isomer, unassigned) [2-2 Isomer 2]				51%			Emax ([1]; read-out: % Emax cf. ACh (M1)): 40%; EC50 [1, 14]: 741 nM; EC50 [2]: > 20000 nM; Emax ([2]; read-out: % Emax cf. ACh (M2)): 2%; EC50 ([3]; pEC50 M4, CHO cells stably expressing human M4): 117 nM; EC50 [4]: > 20000 nM; Emax ([4]; read-out: % Emax cf. ACh (M3)): 3%
CC1(NC(=O)C2CCN(C3CC4CCC(C3)N4c3nc(C(F)(F)F)no3)CC2)CCC1 (single isomer, unassigned) [12-14 Isomer 2]			331 nM		(115) %	(40) %	EC50 [1, 14]: 18.6 nM; EC50 [2]: > 20000 nM; Emax ([2]; read-out: % Emax cf. ACh (M2)): 25%; EC50 [4]: > 20000 nM; Emax ([4]; read-out: % Emax cf. ACh (M3)): 9%
Cc1noc(N2CC3CCC2CC3N2CCC3(CC2)CNC(=O)C3)n1 (single isomer, unassigned) [12-1 Isomer 1]	603 nM		> 20000 nM		(58) %	(5) %	
CCN(C)C(=O)[C@H]1[C@@H]2CN(C3CC4CCC(C3)N4c3nc(C)no3)C[C@@H]21 (single isomer, unassigned; isomer 1) [12-24 Isomer 1]					(74) %	(16) %	pEC50 M1 [1, 19]: 6.08; pEC50 M4 [3, 13]: <4.70
CCC1NC(=O)OC12CCN(C1CCCN(c3nc(C)no3)CC1)CC2 (single isomer, unassigned) [10-4 Isomer 3]	9330 nM		2190 nM		(81) %	(71) %	
Cc1noc(N2CCCC(N3CCC(n4cccn4)CC3)CC2)n1 (single isomer, unassigned) [10-1 Isomer 2]	6610 nM		525 nM		(43) %	(72) %	
Cc1noc(N2CCCC(N3CCC(N4CC(F)(F)C[C@@H]4CO)CC3)CC2)n1 (single isomer, unassigned) [10-8 Isomer 2]	1550 nM		295 nM		(35) %	(73) %	
Cc1noc(N2C3CCC2CC(N2CCC4(CC2)CNC(=O)O4)C3)n1 (single isomer, unassigned) [6-4 Isomer 1]	240 nM		> 20000 nM		(49) %	(15) %	
Cc1noc(N2CCCC(N3CCC4(CC3)OC(=O)NC4(C)C)CC2)n1 (single isomer, unassigned) [10-5 Isomer 1]	> 20000 nM	21%	219 nM	33%			
